According to patent publication US6087493A, “Porphyrin compounds as telomerase inhibitors” (Regents of the University of Texas System, priority 1998, dated 2000):

Target: human telomerase (Homo sapiens, UniProt O14746)
Assay: Telomerase inhibition, primer extension assay in HeLa cell extract
Type: biochemical
Conditions: not given

Chain of human telomerase (O14746 whole entry): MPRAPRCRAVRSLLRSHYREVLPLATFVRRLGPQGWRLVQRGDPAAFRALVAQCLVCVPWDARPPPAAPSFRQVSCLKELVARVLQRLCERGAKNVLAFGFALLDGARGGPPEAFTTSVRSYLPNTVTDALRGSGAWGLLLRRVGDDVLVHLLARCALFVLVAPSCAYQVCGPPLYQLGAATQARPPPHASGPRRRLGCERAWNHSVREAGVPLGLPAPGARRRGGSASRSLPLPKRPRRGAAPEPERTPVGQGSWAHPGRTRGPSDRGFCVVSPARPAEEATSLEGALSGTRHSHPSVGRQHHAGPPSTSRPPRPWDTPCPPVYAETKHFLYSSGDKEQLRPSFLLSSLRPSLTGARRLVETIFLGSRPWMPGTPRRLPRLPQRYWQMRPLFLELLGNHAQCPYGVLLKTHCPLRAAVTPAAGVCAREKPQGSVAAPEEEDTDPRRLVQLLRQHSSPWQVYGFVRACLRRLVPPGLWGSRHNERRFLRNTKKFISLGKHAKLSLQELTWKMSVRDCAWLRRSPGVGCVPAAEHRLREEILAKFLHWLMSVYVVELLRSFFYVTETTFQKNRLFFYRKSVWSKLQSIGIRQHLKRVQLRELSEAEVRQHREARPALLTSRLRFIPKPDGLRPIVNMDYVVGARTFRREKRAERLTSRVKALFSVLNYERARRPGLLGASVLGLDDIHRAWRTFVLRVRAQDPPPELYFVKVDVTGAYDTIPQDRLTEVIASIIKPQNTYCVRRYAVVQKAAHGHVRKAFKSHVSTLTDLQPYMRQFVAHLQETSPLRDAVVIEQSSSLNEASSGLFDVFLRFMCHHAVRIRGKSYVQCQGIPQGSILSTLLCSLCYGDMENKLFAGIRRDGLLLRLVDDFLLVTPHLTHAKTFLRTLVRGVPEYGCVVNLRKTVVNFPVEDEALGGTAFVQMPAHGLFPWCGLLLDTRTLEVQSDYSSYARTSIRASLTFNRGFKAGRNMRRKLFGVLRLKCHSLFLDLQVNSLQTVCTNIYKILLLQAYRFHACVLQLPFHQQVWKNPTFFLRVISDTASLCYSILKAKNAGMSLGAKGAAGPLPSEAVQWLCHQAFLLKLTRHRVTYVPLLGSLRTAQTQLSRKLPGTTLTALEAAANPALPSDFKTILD

Compound	telomerase inhibition in words
5,10-di-(N-methyl-4-pyridyl)-15,20-di-(3-nitrophenyl)porphine chloride [Compound D20]	good activity
Copper(II)tetra-N-methyl-tetrazaphthalocyanine [Compound D7]	only slight activity
Copper(II)tetraaminophthalocyanine [Compound B14]	active

Same assay, conditions: 25 μM; Table 5

Compound	% Inhibition of telomerase
Ethylenediamine protoporphyrin-IX [Compound B19]	0%

Same assay, conditions: 25 μM; Table 5; read-out: % Inhibition of telomerase

Compound	inhibition at 25 µM
C[n+]1ccccc1-c1c2nc(c(-c3cccc[n+]3C)c3ccc([nH]3)c(-c3cccc[n+]3C)c3nc(c(-c4cccc[n+]4C)c4ccc1[nH]4)C=C3)C=C2 [Compound B8, Tetra(N-methyl-2-pyridyl)porphyrin chloride]	0%
C[N+](C)(C)c1ccc(-c2c3nc(c(-c4ccc([N+](C)(C)C)cc4)c4ccc([nH]4)c(-c4ccc([N+](C)(C)C)cc4)c4nc(c(-c5ccc([N+](C)(C)C)cc5)c5ccc2[nH]5)C=C4)C=C3)cc1 [TAP (B23), tetra(N,N,N-trimethyl-4-aminophenyl)porphyrin chloride]	6%

Same assay, conditions: 25 μM; Table 6

Compound	% Inhibition of telomerase
5,10-di-(N-methyl-3-quinolyl)-15,20-di-(N-methyl-3-pyridyl)porphine chloride [Compound D12]	80%

Same assay, conditions: 25 μM; Table 7; read-out: % Inhibition of telomerase

Compound	inhibition at 25 µM
C[n+]1cccc(-c2c3nc(c(-c4ccc[n+](C)c4)c4ccc([nH]4)c(-c4ccc[n+](C)c4)c4nc(c(-c5ccccc5)c5ccc2[nH]5)C=C4)C=C3)c1 [Compound B10, Tri(N-methyl-3-pyridyl)phenylporphyrin chloride]	42%
C[n+]1cccc(-c2c3nc(c(-c4ccc[n+](C)c4)c4ccc([nH]4)c(-c4ccccc4)c4nc(c(-c5ccccc5)c5ccc2[nH]5)C=C4)C=C3)c1 [Compound B22]	20%
C[n+]1cccc(-c2c3nc(c(-c4ccccc4)c4ccc([nH]4)c(-c4ccc[n+](C)c4)c4nc(c(-c5ccccc5)c5ccc2[nH]5)C=C4)C=C3)c1 [Compound B9, 5,15-Diphenyl-10,20-di(N-methyl-3-pyridyl)porphyrin chloride]	18%
Cc1ccc(-c2c3nc(c(-c4ccc(C)cc4)c4ccc([nH]4)c(-c4cc[n+](C)cc4)c4nc(c(-c5ccc(C)cc5)c5ccc2[nH]5)C=C4)C=C3)cc1 [Compound D9, 5-(N-methyl-4-pyridyl)-10,15,20-(4-methylphenyl)porphine chloride]	31%
C[n+]1ccc(-c2c3nc(c(-c4ccccc4)c4ccc([nH]4)c(-c4ccccc4)c4nc(c(-c5ccccc5)c5ccc2[nH]5)C=C4)C=C3)cc1 [Compound B24]	34%
C[n+]1ccccc1-c1c2nc(c(-c3ccccc3)c3ccc([nH]3)c(-c3ccccc3)c3nc(c(-c4ccccc4)c4ccc1[nH]4)C=C3)C=C2 [Compound B26]	0%
C[n+]1ccc(-c2c3nc(c(-c4ccccc4)c4ccc([nH]4)c(-c4cc[n+](C)cc4)c4nc(c(-c5ccccc5)c5ccc2[nH]5)C=C4)C=C3)cc1 [Compound B4, 5,15-Diphenyl-10,20-di(N-methyl-4-pyridyl)porphyrin chloride]	30%
C[n+]1ccc(-c2c3nc(c(-c4ccccc4)c4ccc([nH]4)c(-c4ccccc4)c4nc(c(-c5cc[n+](C)cc5)c5ccc2[nH]5)C=C4)C=C3)cc1 [Compound B5, 5,10-Diphenyl-15,20-di(N-methyl-4-pyridyl)porphyrin chloride]	20%

Same assay, conditions: 25 μM; Table 9; read-out: % Inhibition of telomerase

Compound	inhibition at 25 µM
O=[N+]([O-])c1cc(-c2c3nc(cc4ccc([nH]4)c(-c4ccc(O)c([N+](=O)[O-])c4)c4nc(cc5ccc2[nH]5)C=C4)C=C3)ccc1O [Compound D14]	55%

Same assay, conditions: 25 μM; Table 10

Compound	% Inhibition of telomerase
5,10-di-(N-methyl-4-pyridyl)-15,20-di-(3-nitrophenyl)porphine chloride [Compound D20]	70%

Same assay, conditions: 25 μM; Table 13; read-out: % Inhibition of telomerase

Compound	inhibition at 25 µM
Nc1ccccc1-c1c2nc(c(-c3ccccc3N)c3ccc([nH]3)c(-c3ccccc3N)c3nc(c(-c4ccccc4N)c4ccc1[nH]4)C=C3)C=C2 [Compound B3, Tetra-(2-aminophenyl)porphyrin]	3%
C[N+](C)(C)c1ccc(-c2c3nc(c(-c4ccc([N+](C)(C)C)cc4)c4ccc([nH]4)c(-c4ccc([N+](C)(C)C)cc4)c4nc(c(-c5ccc([N+](C)(C)C)cc5)c5ccc2[nH]5)C=C4)C=C3)cc1 [TAP (B23), tetra(N,N,N-trimethyl-4-aminophenyl)porphyrin chloride]	18%
C[n+]1ccc(-c2c3nc(c(-c4ccccc4)c4ccc([nH]4)c(-c4cc[n+](C)cc4)c4nc(c(-c5ccccc5)c5ccc2[nH]5)C=C4)C=C3)cc1 [Compound B4, 5,15-Diphenyl-10,20-di(N-methyl-4-pyridyl)porphyrin chloride]	47%

Same assay, conditions: Table 15; concentration fixed at 25 μM; 25 µM

Compound	% Inhibition of telomerase
C=CC1=C(C)c2cc3[nH]c(cc4nc(cc5[nH]c(cc1n2)c(C)c5C=C)C(C)=C4CCC(=O)O)c(CCC(=O)O)c3C [Compound H19]	16%

Same assay, conditions: Table 15; concentration fixed at 25 μM; read-out: % Inhibition of telomerase

Compound	inhibition at 25 µM
CCC1=C(C)c2cc3[nH]c(cc4nc(cc5[nH]c(cc1n2)c(C)c5CC)C(C)=C4)c(C)c3CC(=O)OC [Compound H32]	0%
COC(=O)CCC1=C(C)c2cc3[nH]c(cc4nc(cc5[nH]c(cc1n2)c(CCC(=O)OC)c5C)C(C)=C4Br)c(C)c3Br [Compound H10]	0%
CCC1=C(C)c2cc3[nH]c(cc4nc(cc5[nH]c(cc1n2)c(C)c5CC)C(C)=C4CCCO)c(CCCO)c3C [Compound H26]	23%
CCC1=C(CC)c2cc3[nH]c(cc4nc(cc5[nH]c(cc1n2)c(CC)c5CC)C(CC)=C4CC)c(CC)c3CC [Compound H1]	12%
C=CC1=C(C)c2cc3[nH]c(cc4nc(cc5[nH]c(cc1n2)c(C)c5C=C)C(C)=C4CCC(=O)O)c(CCC(=O)O)c3C [Compound H18]	17%
CC1=C(CCC(=O)O)c2cc3[nH]c(cc4nc(cc5[nH]c(cc1n2)c(C)c5CCC(=O)O)C(CCC(=O)O)=C4C)c(C)c3CCC(=O)O [Compound H23]	5%
CCOC(=O)CCc1c(C)c2cc3nc(cc4[nH]c(cc5nc(cc1[nH]2)C(C)=C5CC)c(C)c4CC)C(C)=C3C(=O)OCC [Compound H25]	18%
COC(=O)CCC1=C(C)c2cc3[nH]c(cc4nc(cc5[nH]c(cc1n2)c(CCC(=O)OC)c5C)C(C)=C4CCC(=O)OC)c(CCC(=O)OC)c3C [Compound H21]	33%
COC(=O)CCC1=C(C)c2cc3[nH]c(cc4nc(cc5[nH]c(cc1n2)c(CCC(=O)OC)c5C)C(C)=C4S(=O)(=O)O)c(C)c3S(=O)(=O)O [Compound H8]	24%
COC(=O)CCC1=C(C)c2cc3cc(C)c(cc4nc(cc5[nH]c(cc1n2)c(CCC(=O)OC)c5C)C(C)=C4)[nH]3 [Compound H7]	14%
O=C(O)CCC1=C(CC(=O)O)c2cc3[nH]c(cc4nc(cc5[nH]c(cc1n2)c(CCC(=O)O)c5CC(=O)O)C(CC(=O)O)=C4CCC(=O)O)c(CCC(=O)O)c3CC(=O)O [Compound H24]	4%
C=CC1=C(C)c2cc3[nH]c(cc4nc(cc5[nH]c(cc1n2)c(C)c5C=C)C(C)=C4CCCO)c(CCCO)c3C [Compound H27]	24%
CCC1=C(C)c2cc3[nH]c(cc4nc(cc5[nH]c(cc1n2)c(C)c5CC)C(C)=C4CCC(=O)O)c(CCC(=O)O)c3C [Compound H15]	6%
COC(=O)CCC1=C(C)c2cc3[nH]c(cc4nc(cc5[nH]c(cc1n2)c(CCC(=O)OC)c5C)C(C)=C4C(C)=O)c(C)c3C(C)=O [Compound H9]	14%
CC1=C(C=O)c2cc3[nH]c(cc4nc(cc5[nH]c(cc1n2)c(CCC(=O)O)c5C)C(CCC(=O)O)=C4C)c(C=O)c3C [Compound H31]	-10%
CC1=C(CCC(=O)O)c2cc3[nH]c(cc4nc(cc5[nH]c(cc1n2)c(C(C)O)c5C)C(C(C)O)=C4C)c(C)c3CCC(=O)O (stereo not drawn) [Compound H12]	18%
C=CC1=C(C)c2cc3[nH]c(cc4nc(cc5[nH]c(cc1n2)c(C)c5C=C)C(C)=C4CCC(=O)OC)c(CCC(=O)OC)c3C [Compound H17]	6%
CCC1=C(C)c2cc3[nH]c(cc4nc(cc5[nH]c(cc1n2)c(C)c5CC)C(C)=C4CCC(=O)OC)c(CCC(=O)OC)c3C [Compound H16]	0%
